Row | SMILES | logP
1 | CC(=O)Nc1cncc(Cl)n1 | 1.1
2 | NC(=O)c1cncc(Cl)n1 | 0.28
3 | CCOc1cncc(Cl)n1 | 2.22
4 | Cc1cncc(Cl)n1 | 1.04
5 | Clc1cncc(Cl)n1 | 1.53
6 | Nc1cncc(Cl)n1 | 0.95
7 | COc1cncc(Cl)n1 | 1.65
8 | Fc1cncc(Cl)n1 | 1.16
9 | N#Cc1cncc(Cl)n1 | 0.79
10 | CN(C)c1cncc(Cl)n1 | 1.95
11 | CCCOc1cncc(Cl)n1 | 2.71
12 | COC(=O)c1cncc(Cl)n1 | 0.47
